Measurements taken from PubChem BioAssay AID1963421 (Molecular Pharmacology Branch, DTP, NCI, 2024).

System: 519858-162-T-J1-PDC complex spheroid growth, % test/control
Assay: Anticancer human tumor 519858-162-T-J1-PDC patient-derived colon adenocarcinoma cell line growth inhibition [Asc]
Details: for IC50: curve of first compound; for viability, T/C: stronger effect = lower value
Procedure, shortened: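 Concentration series start at each agent's clinical Cmax, or at 10 microM when none is established, and drop in half-log steps; agents are applied alone or together to complex spheroids built with HUVEC and hMSC.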

[1] = second compound 0.00949 µM, first compound 0.0316 µM
[2] = second compound 0.00949 µM, first compound 0.1 µM
[3] = second compound 0.00949 µM, first compound 0.316 µM
[4] = second compound 0.00949 µM, first compound 1 µM
[5] = second compound 0.00949 µM, first compound 3.16 µM
[6] = second compound 0.00949 µM, first compound 10 µM
[7] = second compound 0.03 µM, first compound 0.0316 µM
[8] = second compound 0.03 µM, first compound 0.1 µM
[9] = second compound 0.03 µM, first compound 0.316 µM
[10] = second compound 0.03 µM, first compound 1 µM
[11] = second compound 0.03 µM, first compound 3.16 µM
[12] = second compound 0.03 µM, first compound 10 µM
[13] = second compound 0.0949 µM, first compound 0.0316 µM
[14] = second compound 0.0949 µM, first compound 0.1 µM
[15] = second compound 0.0949 µM, first compound 0.316 µM
[16] = second compound 0.0949 µM, first compound 1 µM
[17] = second compound 0.0949 µM, first compound 3.16 µM
[18] = second compound 0.0949 µM, first compound 10 µM
[19] = second compound 0.3 µM, first compound 0.0316 µM
[20] = second compound 0.3 µM, first compound 0.1 µM
[21] = second compound 0.3 µM, first compound 0.316 µM
[22] = second compound 0.3 µM, first compound 1 µM
[23] = second compound 0.3 µM, first compound 3.16 µM
[24] = second compound 0.3 µM, first compound 10 µM
[25] = second compound 0.949 µM, first compound 0.0316 µM
[26] = second compound 0.949 µM, first compound 0.1 µM
[27] = second compound 0.949 µM, first compound 0.316 µM
[28] = second compound 0.949 µM, first compound 1 µM
[29] = second compound 0.949 µM, first compound 3.16 µM
[30] = second compound 0.949 µM, first compound 10 µM
[31] = second compound 3 µM, first compound 0.0316 µM
[32] = second compound 3 µM, first compound 0.1 µM
[33] = second compound 3 µM, first compound 0.316 µM
[34] = second compound 3 µM, first compound 1 µM
[35] = second compound 3 µM, first compound 3.16 µM
[36] = second compound 3 µM, first compound 10 µM
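Note: seven day drug exposure begun three days after spheroid seeding.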
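Throughout, for viability, T/C: 100% = DMSO vehicle wells and lower values mean less viable spheroid.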

C#Cc1c(F)ccc2cc(O)cc(-c3ncc4c(N5CC6CCC(C5)N6)nc(OCC56CCCN5CC(F)C6)nc4c3F)c12 (centres undefined) + CCN1C(C(=O)NC23CCC(C(=O)O)(CC2)CC3)C(c2cccc(Cl)c2F)C2(C(=O)Nc3cc(Cl)ccc32)C12CCCCC2
IC50 (second compound 0.00949 µM): > 10 µM | IC50 (second compound 0.03 µM): > 10 µM | IC50 (second compound 0.0949 µM): > 10 µM | IC50 (second compound 0.3 µM): > 10 µM | IC50 (second compound 0.949 µM): > 10 µM | IC50 (second compound 3 µM): > 10 µM | viability, T/C [1]: 75.2% | viability, T/C [2]: 104% | viability, T/C [3]: 84.3% | viability, T/C [4]: 66.3% | viability, T/C [5]: 82.3% | viability, T/C [6]: 64% | viability, T/C [7]: 67.5% | viability, T/C [8]: 84.6% | viability, T/C [9]: 96.4% | viability, T/C [10]: 92.4% | viability, T/C [11]: 94.3% | viability, T/C [12]: 88.4% | viability, T/C [13]: 89.6% | viability, T/C [14]: 99.2% | viability, T/C [15]: 88.4% | viability, T/C [16]: 64.1% | viability, T/C [17]: 81.4% | viability, T/C [18]: 69% | viability, T/C [19]: 59.4% | viability, T/C [20]: 95.5% | viability, T/C [21]: 78.4% | viability, T/C [22]: 71.2% | viability, T/C [23]: 74.2% | viability, T/C [24]: 102% | viability, T/C [25]: 53.3% | viability, T/C [26]: 116% | viability, T/C [27]: 81.3% | viability, T/C [28]: 58.5% | viability, T/C [29]: 86.6% | viability, T/C [30]: 93.6% | viability, T/C [31]: 64.2% | viability, T/C [32]: 60.6% | viability, T/C [33]: 63.3% | viability, T/C [34]: 77.7% | viability, T/C [35]: 93% | viability, T/C [36]: 66.7%

C=C(F)C(=O)N1CCN(c2nc(OCC3CCCN3C)nc3c2CCN(c2cccc4cccc(Cl)c24)C3)CC1CC#N (centres undefined) + CCN1C(C(=O)NC23CCC(C(=O)O)(CC2)CC3)C(c2cccc(Cl)c2F)C2(C(=O)Nc3cc(Cl)ccc32)C12CCCCC2
IC50 (second compound 0.00949 µM): 7.46 µM | IC50 (second compound 0.03 µM): > 10 µM | IC50 (second compound 0.0949 µM): > 10 µM | IC50 (second compound 0.3 µM): 9.03 µM | IC50 (second compound 0.949 µM): 4.55 µM | IC50 (second compound 3 µM): 2.79 µM | viability, T/C [1]: 114% | viability, T/C [2]: 80.6% | viability, T/C [3]: 84.5% | viability, T/C [4]: 96.3% | viability, T/C [5]: 71.7% | viability, T/C [6]: 41.4% | viability, T/C [7]: 102% | viability, T/C [8]: 84% | viability, T/C [9]: 78.4% | viability, T/C [10]: 84.3% | viability, T/C [11]: 71.9% | viability, T/C [12]: 52.5% | viability, T/C [13]: 126% | viability, T/C [14]: 110% | viability, T/C [15]: 76.2% | viability, T/C [16]: 102% | viability, T/C [17]: 84.7% | viability, T/C [18]: 41.6% | viability, T/C [19]: 81% | viability, T/C [20]: 73.8% | viability, T/C [21]: 97.7% | viability, T/C [22]: 90.5% | viability, T/C [23]: 79.7% | viability, T/C [24]: 47.2% | viability, T/C [25]: 95.5% | viability, T/C [26]: 76.6% | viability, T/C [27]: 96.7% | viability, T/C [28]: 86.3% | viability, T/C [29]: 58.1% | viability, T/C [30]: 32.4% | viability, T/C [31]: 74.7% | viability, T/C [32]: 81% | viability, T/C [33]: 82.7% | viability, T/C [34]: 70% | viability, T/C [35]: 47.8% | viability, T/C [36]: 26.2%
